Measured values reported in ChEMBL document CHEMBL1157410, “7-aryl 1,5-dihydro-benzo[e][1,4]oxazepin-2-ones and analogs as non-steroidal progesterone receptor antagonists” (Bioorg Med Chem, 2008).

What was measured:
Rattus norvegicus = test: Activity in ovariectomized rat assessed as inhibition of progesterone-induced decidualization at 3 mg/kg, po; type: functional; set-up: scale not given: the % may be the effect or the level left
Progesterone receptor = target: T1, Progesterone receptor (Homo sapiens, UniProt P06401); test: Inhibition of progesterone receptor mediated progesterone-induced alkaline phosphatase activity in human T47D cells; type: cell-based
T1 sequence (P06401 whole entry): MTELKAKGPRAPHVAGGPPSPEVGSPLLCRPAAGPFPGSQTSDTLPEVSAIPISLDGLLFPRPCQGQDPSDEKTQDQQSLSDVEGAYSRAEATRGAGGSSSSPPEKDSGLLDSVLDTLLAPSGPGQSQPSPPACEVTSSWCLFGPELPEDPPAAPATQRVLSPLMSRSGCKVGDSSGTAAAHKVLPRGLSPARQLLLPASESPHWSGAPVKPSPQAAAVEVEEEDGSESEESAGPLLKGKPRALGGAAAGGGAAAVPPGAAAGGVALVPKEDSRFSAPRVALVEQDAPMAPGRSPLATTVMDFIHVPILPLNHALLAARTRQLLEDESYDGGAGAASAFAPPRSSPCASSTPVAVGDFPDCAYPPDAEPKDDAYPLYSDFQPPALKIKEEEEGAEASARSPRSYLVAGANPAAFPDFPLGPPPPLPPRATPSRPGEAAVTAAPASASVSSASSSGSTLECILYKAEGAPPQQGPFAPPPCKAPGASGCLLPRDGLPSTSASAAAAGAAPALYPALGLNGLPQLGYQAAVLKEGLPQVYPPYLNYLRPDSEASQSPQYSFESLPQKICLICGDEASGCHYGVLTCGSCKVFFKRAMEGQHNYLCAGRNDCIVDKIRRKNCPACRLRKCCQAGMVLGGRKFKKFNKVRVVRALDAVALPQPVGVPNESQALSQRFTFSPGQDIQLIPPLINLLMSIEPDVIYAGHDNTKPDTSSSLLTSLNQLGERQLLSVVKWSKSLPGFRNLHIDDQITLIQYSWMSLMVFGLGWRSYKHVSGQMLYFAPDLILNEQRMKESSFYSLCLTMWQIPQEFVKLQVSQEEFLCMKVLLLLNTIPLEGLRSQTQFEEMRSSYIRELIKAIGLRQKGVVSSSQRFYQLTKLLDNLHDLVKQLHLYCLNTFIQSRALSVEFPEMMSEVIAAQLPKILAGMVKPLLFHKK

Androgen receptor = target: T2, Androgen receptor (Homo sapiens, UniProt P10275)
T2 sequence (P10275 whole entry): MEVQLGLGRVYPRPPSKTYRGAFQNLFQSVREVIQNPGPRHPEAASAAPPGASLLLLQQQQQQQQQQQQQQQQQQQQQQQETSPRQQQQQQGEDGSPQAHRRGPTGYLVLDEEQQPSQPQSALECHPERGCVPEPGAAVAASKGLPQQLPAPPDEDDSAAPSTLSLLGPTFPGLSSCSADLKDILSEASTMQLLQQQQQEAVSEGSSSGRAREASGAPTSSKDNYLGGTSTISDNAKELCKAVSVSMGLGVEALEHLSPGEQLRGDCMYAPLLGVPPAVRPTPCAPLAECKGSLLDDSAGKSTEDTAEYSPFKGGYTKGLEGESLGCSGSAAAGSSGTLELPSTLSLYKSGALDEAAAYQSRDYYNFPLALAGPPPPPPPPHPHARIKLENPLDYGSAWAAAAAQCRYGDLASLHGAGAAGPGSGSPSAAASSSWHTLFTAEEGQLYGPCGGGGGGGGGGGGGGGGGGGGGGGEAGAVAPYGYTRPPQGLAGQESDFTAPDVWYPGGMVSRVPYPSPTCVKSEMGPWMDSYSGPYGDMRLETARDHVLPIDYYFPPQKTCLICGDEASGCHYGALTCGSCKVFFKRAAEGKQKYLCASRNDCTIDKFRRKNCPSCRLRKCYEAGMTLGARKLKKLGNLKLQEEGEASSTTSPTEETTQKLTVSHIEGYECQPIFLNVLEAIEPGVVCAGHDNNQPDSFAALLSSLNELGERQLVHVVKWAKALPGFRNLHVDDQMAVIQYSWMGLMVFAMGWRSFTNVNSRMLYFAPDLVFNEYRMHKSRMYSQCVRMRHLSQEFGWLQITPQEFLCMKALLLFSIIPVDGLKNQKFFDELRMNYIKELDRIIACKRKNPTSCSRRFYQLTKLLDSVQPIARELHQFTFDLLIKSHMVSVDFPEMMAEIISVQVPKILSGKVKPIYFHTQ
Description: Antagonist activity at cloned androgen receptor-ligand binding domain expressed in african green monkey COS7 cells by two hybrid luciferase assay

[1] = Selectivity for progesterone receptor over estrogen receptor
[2] = Selectivity for progesterone receptor over androgen receptor
[3] = Selectivity for progesterone receptor over glucocorticoid receptor
[4] = Selectivity for progesterone receptor over mineralocorticoid receptor

IC50 (Progesterone receptor)	IC50 (Androgen receptor)	Selectivity ratio [1]	Selectivity ratio [2]	Selectivity ratio [3]	Selectivity ratio [4]	Structure (SMILES)	Activity (Rattus norvegicus)
13.3 nM	> 3000 nM	> 100	> 100	> 100	> 100	N#Cc1cc(F)cc(-c2ccc3c(c2)C(c2ccco2)(c2ccco2)OCC(=O)N3)c1	
25 nM	> 3000 nM	> 100	> 100	> 100	> 100	CC1(C)OCC(=O)Nc2ccc(-c3cc(F)cc(C#N)c3)cc21	50%

Structure (SMILES)	IC50 (Progesterone receptor)	IC50 (Androgen receptor)	Selectivity ratio [1]	Selectivity ratio [2]	Selectivity ratio [3]	Selectivity ratio [4]	Activity (Rattus norvegicus)
CCC1(c2ccco2)OCC(=O)Nc2ccc(-c3cc(F)cc(C#N)c3)cc21 (stereo unspecified)	11.8 nM	690 nM					50%
